Reference: patent US5252718A, “Fibroblast growth factor antagonists” (The Salk Institute for Biological Studies, priority 1992, dated 1993)
Ends that are not written are not given here.

Columns and labels:
[1] = Binding to [^3 H]-heparin; settings: result in words
[2] = system: 3T3 cells; assay: [^3 H]-thymidine incorporation in serum-starved 3T3 cells challenged with bFGF; format: cell-based; settings: 24 hours with peptide and bFGF challenge, then 5 hours label, result in words
Experimental: The synthesis of bFGF(97-120)-NH2 having the formula: H-Arg-Leu-Glu-Ser-Asn-Asn-Tyr-Asn-Thr-Tyr-Arg-Ser-Arg-Lys-Tyr-Ser-Ser-Trp- Tyr-Val-Ala-Lys-Arg-NH2 is conducted in a stepwise manner using a Beckman 990 synthesizer and an MBHA resin in the manner described in Example I. The peptide is judged to be substantially pure using TLC and HPLC. Testing is carried out using a culture of serum-starved 3T3 cells which are incubated for 24 hours with the bFGF peptide fragment and a challenge dose of bFGF and then incubated for 5 hours with radioactive [^3 H]-thymidine to determine whether the fragment will inhibit the incorporation of [^3 H]-DNA in the cell line which will be indicative of its inhibiting cell growth.

[3] = system: FGF receptors of BHK cells; settings: result in words

Row | Substance | binding of the peptide to heparin [1] | inhibition of bFGF-induced mitosis ([^3 H]-thymidine incorporation) [2] | inhibition of bFGF binding to BHK cells (receptor) [3]
1 | H-Arg-Leu-Glu-Ser-Asn-Asn-Tyr-Asn-Thr-Tyr-Arg-Ser-Arg-Lys-Tyr-Ser-Ser-Trp- Tyr-Val-Ala-Lys-Arg-NH2 (H-RLESNNYNTYRSRKYSSWYVAKR-NH2) [bFGF(97-120)-NH2] | binds itself to heparin | very good inhibition | very strongly inhibits
2 | H-SNNYNTYRSRKYSSWYVALKR-NH2 [bFGF(100-120)-NH2, H-Ser-Asn-Asn-Tyr-Asn-Thr-Tyr-Arg-Ser-Arg-Lys-Tyr-Ser-Ser-Trp-Tyr-Val-Ala- Leu-Lys-Arg-NH2] | binds itself to heparin | very good inhibition | very strongly inhibits
3 | H-YRSRKYSSMYVALKR-NH2 [[Met^114]-bFGF(106-120)-NH2, H-Tyr-Arg-Ser-Arg-Lys-Tyr-Ser-Ser-Met-Tyr-Val-Ala-Leu-Lys-Arg-NH2] | – | very good inhibition | very strongly inhibits
4 | H-YRSRKYSSWFVALKR-NH2 [[Phe^115]-bFGF(106-120)-NH2, H-Tyr-Arg-Ser-Arg-Lys-Tyr-Ser-Ser-Trp-Phe-Val-Ala-Leu-Lys-Arg-NH2] | – | very good inhibition | very strongly inhibits
5 | H-YRSRKYSSWY-NH2 [bFGF(106-115)-NH2, H-Tyr-Arg-Ser-Arg-Lys-Tyr-Ser-Ser-Trp-Tyr-NH2] | binds to heparin | very good inhibition | very strongly inhibits
6 | H-YRSRKYSSWYVALKR-NH2 [bFGF(106-120)-NH2, H-Tyr-Arg-Ser-Arg-Lys-Tyr-Ser-Ser-Trp-Tyr-Val-Ala-Leu-Lys-Arg-NH2] | binds to heparin | very good inhibition | very strongly inhibits
7 | YNTYRSRKYSSWYVALKR-NH2 [bFGF(103-120)-NH2, H-Tyr-Asn-Thr-Tyr-Arg-Ser-Arg-Lys-Tyr-Ser-Ser-Trp-Tyr-Val-Ala-Leu-Lys-Arg- NH2] | binds to heparin | very good inhibition | very strongly inhibits
